In patent US20210255193A1, “LYSINE REACTIVE PROBES AND USES THEREOF” (The Scripps Research Institute, priority 2017, published 2021):

What was measured:
Assay in all cases: ABPP-SILAC IP experiment for SIN3A interacting proteins
Format in all cases: binding
Settings in all cases: 21 50 μM
[1] = target: T1, SIN3A-interacting proteins MAX, MNT and MXI1 (Homo sapiens, UniProt Q96ST3)
T1 construct: expressed in transfected cells; host or cells: SILAC HEK 293T
Procedure: (§1) ABPP-SILAC IP experiment for SIN3A interacting proteins. All SILAC experiments were performed using the isotopically labeled human HEK 293T cell line generated by 8 passages in either light (100 μg ml^−1 each of L-arginine and L-lysine) or heavy (100 μg ml^−1 each of [^13C6^15N4]L-arginine and [^13C6^15N2]L-lysine) SILAC DMEM media (Thermo Scientific) supplemented with 10% dialyzed fetal calf serum, penicillin, streptomycin and glutamine. 2×10^5 SILAC HEK 293T cells were plated in 6 cm dishes in either heavy or light labeled SILAC media. Cells were transfected the next day with 1 μg of FLAG-GFP, or FLAG-SIN3A wild type, K155R, or K155W constructs as indicated. After 48 hours, cells were rinsed with ice-cold PBS and suspended in cold IP-lysis buffer (0.5% Chaps, 50 mM Hepes pH 7.4, 150 mM NaCl, and EDTA-free protease inhibitors and phosphatase inhibitors (Roche)) by gentle sonication. Samples were rotated for 30 minutes at 4° C. to complete lysis. For compound treatment experiments, 50 μM (final concentration) of 21 was added to samples prior to rotation. Samples were clarified by centrifugation for 1 minute at 16,000 rpm, and protein concentration was measured using the DC Protein Assay kit (Bio-Rad). Samples were normalized to 2 mg/mL by addition of cold IP-lysis buffer. 25 μL of anti-FLAG-M2 beads was added to the clarified supernatant and incubated for 3 h while rotating at 4° C. Beads were washed three times with cold PBS, and then eluted with 40 μL of […] for 10 min at 65° C. […] LC-MS spectra were collected and analyzed as described above with the following modifications. […] A list of all proteins enriched preferentially by SIN3A was generated from a comparison of SIN3A wild type vs GFP immunoprecipitations, including all proteins with at least two distinct quantified peptide sequences and a median ratio greater than or equal to 5 (R>5). […] Furthermore, if there were at least two quantified unique peptides, the median ratio of each protein's unique peptides (not occurring in any other human protein) were reported.

TGIF1-SIN3A interaction = target: T2, TGIF1-SIN3A interaction (Homo sapiens, UniProt Q96ST3)
T2 construct: expressed in transfected cells; host or cells: SILAC HEK 293T
T2 sequence (Q96ST3 1-400): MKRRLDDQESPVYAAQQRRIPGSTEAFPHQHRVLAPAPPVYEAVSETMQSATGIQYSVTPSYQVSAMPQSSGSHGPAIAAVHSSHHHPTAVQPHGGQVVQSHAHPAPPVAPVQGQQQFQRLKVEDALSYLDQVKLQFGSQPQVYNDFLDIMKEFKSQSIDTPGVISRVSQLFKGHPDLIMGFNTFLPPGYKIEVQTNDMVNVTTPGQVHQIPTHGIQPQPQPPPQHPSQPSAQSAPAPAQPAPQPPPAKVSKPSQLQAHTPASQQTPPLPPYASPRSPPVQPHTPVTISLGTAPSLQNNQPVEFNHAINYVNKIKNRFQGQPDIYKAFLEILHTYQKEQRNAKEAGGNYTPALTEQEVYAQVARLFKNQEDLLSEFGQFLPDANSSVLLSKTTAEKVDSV
Procedure: as §1

TGIF2-SIN3A interaction = target: T3, TGIF2-SIN3A interaction (Homo sapiens, UniProt Q96ST3)
T3 construct: expressed in transfected cells; host or cells: SILAC HEK 293T
T3 sequence (Q96ST3 1-400): as above
Procedure: as §1

T1 sequence (Q96ST3 1-400): as above

Question: Which “effect on co-immunoprecipitation of MAX, MNT and MXI1 with WT-SIN3A” value [1] does the source give for `O=C(Oc1c(F)c(F)c(F)c(F)c1F)c1cc(C(F)(F)F)cc(C(F)(F)F)c1` [fragment 21, Pentafluorophenyl 3,5-bis(trifluoromethyl)benzoate] here?
Answer: not affected

Question: What about the “effect on TGIF1-SIN3A interaction” value (TGIF1-SIN3A interaction) of the same molecule?
Answer: strongly blocked the TGIF1-SIN3A interaction

Question: What about the “effect on TGIF2-SIN3A interaction” value (TGIF2-SIN3A interaction) of the same molecule?
Answer: marginal effect
